Tested on: 3T3L1 cells
Assay: Lipolysis in 3T3L1 cells, glycerol release as biomarker
Format: cell-based
Conditions: positive control, time and concentration not given
Description: Pancreatic lipase activity was measured using 4-methylumbelliferyl oleate (MU Oleate) as a substrate via a fluorescence kinetic assay. 3T3L1 cells were treated with capsicum composition (100 μg/1111) at different time points such as 1 hour (h), 2 h, 4 h and 24 h. […] was used as the positive control. Lipolysis was assessed using glycerol release as a biomarker.
Capsicum composition enhanced the lipolysis after 24 h treatment. The ratio of released glycerol/protein content was 1.59, compared to the positive control:isoproterenol (ratio: 1.60).

For `CC(C)NCC(O)c1ccc(O)c(O)c1` (stereo not shown) [Isoproterenol], the “Ratio treated/non treated (lipolysis)” value was 1.60.

Reference: patent US10668123B2, “Capsicum compositions and uses thereof” (OmniActive Health Technologies Limited, priority 2015, dated 2020)
